Results from US5072011A, “Pt(IV) complexes” (Johnson Matthey, Inc., priority 1990, dated 1991).

Legend:
ADJ/PC6 tumor = experiment: antitumor activity using ADJ/PC6 tumor in mice; type: in vivo; conditions: for P.O. ED90 / P.O. TI: oral (P.O.); for P.O. TI / I.P. TI: TI from LD50 and ED90; for I.P. ED90 / I.P. TI: parenteral (I.P.)
Procedure: (§1) Complexes according to the invention were tested for antitumor activity using ADJ/PC6 tumor in mice. The complexes were administered parenterally (I.P.) or orally (P.O.).

mice = experiment: lethality (LD50) in mice, ADJ/PC6 antitumor test; type: in vivo; conditions: for P.O. LD50: oral (P.O.); for I.P. LD50: parenteral (I.P.)
Procedure: as §1

[1] = common organic solvents, e.g., acetone, methylene chloride; cited from earlier work

Compound: c-t-c-PtCl2 (O2 CCH2 CH3)2 (NH3)(n-C3 H7 NH2) [Compound 9 (Table 2)]
- P.O. ED90 (ADJ/PC6 tumor): 8.6 mg/kg
- P.O. TI (ADJ/PC6 tumor): 13.7
- I.P. ED90 (ADJ/PC6 tumor): 5.6 mg/kg
- I.P. TI (ADJ/PC6 tumor): 7.4
- P.O. LD50 (mice): 118 mg/kg
- I.P. LD50 (mice): 41.5 mg/kg

Compound: c-t-c-PtCl2 (O2 CCH3)2 (NH3)(n-C3 H7 NH2) [Compound 8 (Table 2)]
- P.O. ED90 (ADJ/PC6 tumor): 18 mg/kg
- P.O. TI (ADJ/PC6 tumor): 13.1
- I.P. ED90 (ADJ/PC6 tumor): 3.1 mg/kg
- I.P. TI (ADJ/PC6 tumor): 11.3
- P.O. LD50 (mice): 235 mg/kg
- I.P. LD50 (mice): 35 mg/kg

Compound: N.N.O=C([O-])C1(C(=O)[O-])CCC1.[Pt+2] [carboplatin]
- solubility in water / organic solvents (in words), prior-art complexes [1]: dissolve more readily in water than they do in common organic solvents
